{
  "source": "paper PMC4494927",
  "about": "“Discovery of a small molecule targeting SET-PP2A interaction to overcome BCR-ABLT315I mutation of chronic myeloid leukemia” (Oncotarget, 2015)",
  "key": {"c-KIT": {"target": "c-KIT (Homo sapiens, UniProt P10721)", "assay": "In vitro kinase assay (Kinase-Glo / ADP-Glo)", "type": "biochemical", "details": "TGI1002 1 µM; means of two independent experiments; read-out: Inhibitory effect (%)", "description": "(§1) All kinase reactions were carried out in 384-well plates. After addition of the compounds, kinase and ATP-substrate were added to the assay plates successively, the assay plates were centrifuged at 1,000 x g for 1 min and incubated for 1 h at 30 °C. Then, Kinase-Glo Plus or ADP-Glo reagent was added to each well. In Kinase-Glo assay, after addition of the reagent for 20 min, the luminescence was measured on an EnVision Multilabel Plate Reader (Perkin-Elmer). In ADP-Glo assay, after addition of the reagent for 40 min, Kinase Detection Reagent was added and incubated for another 30 min at 27 °C, and then the luminescence was measured. Kinase inhibition rates were calculated per manufacturer's instructions."}, "ALK": {"target": "ALK (Homo sapiens, UniProt Q9UM73)", "assay": "In vitro kinase assay (Kinase-Glo / ADP-Glo)", "type": "biochemical", "details": "TGI1002 1 µM; means of two independent experiments; read-out: Inhibitory effect (%)", "description": "as §1"}, "CDK2/CyclinA2": {"target": "CDK2/CyclinA2 (Homo sapiens, UniProt P24941)", "assay": "In vitro kinase assay (Kinase-Glo / ADP-Glo)", "type": "biochemical", "details": "TGI1002 1 µM; means of two independent experiments; read-out: Inhibitory effect (%)", "description": "as §1"}, "PKAcβ": {"target": "PKAcβ (Homo sapiens, UniProt P22694)", "assay": "In vitro kinase assay (Kinase-Glo / ADP-Glo)", "type": "biochemical", "details": "TGI1002 1 µM; means of two independent experiments; read-out: Inhibitory effect (%)", "description": "as §1"}, "ABL2": {"target": "ABL2 (Homo sapiens, UniProt P42684)", "assay": "In vitro kinase assay (Kinase-Glo / ADP-Glo)", "type": "biochemical", "details": "TGI1002 1 µM; means of two independent experiments; read-out: Inhibitory effect (%)", "description": "as §1"}, "PKAcα": {"target": "PKAcα (Homo sapiens, UniProt P17612)", "assay": "In vitro kinase assay (Kinase-Glo / ADP-Glo)", "type": "biochemical", "details": "TGI1002 1 µM; means of two independent experiments; read-out: Inhibitory effect (%)", "description": "as §1"}, "FLT1(VEGFR1)": {"target": "FLT1(VEGFR1) (Homo sapiens, UniProt P17948)", "assay": "In vitro kinase assay (Kinase-Glo / ADP-Glo)", "type": "biochemical", "details": "TGI1002 1 µM; means of two independent experiments; read-out: Inhibitory effect (%)", "description": "as §1"}, "GSK3β": {"target": "GSK3β (Homo sapiens, UniProt P49841)", "assay": "In vitro kinase assay (Kinase-Glo / ADP-Glo)", "type": "biochemical", "details": "TGI1002 1 µM; means of two independent experiments; read-out: Inhibitory effect (%)", "description": "as §1"}, "HER2": {"target": "HER2 (Homo sapiens, UniProt P04626)", "assay": "In vitro kinase assay (Kinase-Glo / ADP-Glo)", "type": "biochemical", "details": "TGI1002 1 µM; means of two independent experiments; read-out: Inhibitory effect (%)", "description": "as §1"}, "Aurora B": {"target": "Aurora B (Homo sapiens, UniProt Q96GD4)", "sequence (Q96GD4 whole entry)": "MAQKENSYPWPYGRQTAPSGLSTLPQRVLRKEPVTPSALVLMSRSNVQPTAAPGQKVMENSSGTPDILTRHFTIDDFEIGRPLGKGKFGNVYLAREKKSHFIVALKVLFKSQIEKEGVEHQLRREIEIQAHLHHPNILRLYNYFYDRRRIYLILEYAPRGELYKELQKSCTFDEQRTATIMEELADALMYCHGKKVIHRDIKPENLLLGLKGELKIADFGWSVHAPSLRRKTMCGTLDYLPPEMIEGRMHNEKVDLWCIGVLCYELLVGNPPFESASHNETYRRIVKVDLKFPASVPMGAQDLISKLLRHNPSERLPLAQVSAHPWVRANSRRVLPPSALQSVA", "assay": "In vitro kinase assay (Kinase-Glo / ADP-Glo)", "type": "biochemical", "details": "TGI1002 1 µM; means of two independent experiments; read-out: Inhibitory effect (%)", "description": "as §1"}, "TrkB": {"target": "TrkB (Homo sapiens, UniProt Q16620)", "assay": "In vitro kinase assay (Kinase-Glo / ADP-Glo)", "type": "biochemical", "details": "TGI1002 1 µM; means of two independent experiments; read-out: Inhibitory effect (%)", "description": "as §1"}, "AKT2": {"target": "AKT2 (Homo sapiens, UniProt P31751)", "assay": "In vitro kinase assay (Kinase-Glo / ADP-Glo)", "type": "biochemical", "details": "TGI1002 1 µM; means of two independent experiments; read-out: Inhibitory effect (%)", "description": "as §1"}, "ABL1": {"target": "ABL1 (Homo sapiens, UniProt P00519)", "assay": "In vitro kinase assay (Kinase-Glo / ADP-Glo)", "type": "biochemical", "details": "TGI1002 1 µM; means of two independent experiments; read-out: Inhibitory effect (%)", "description": "as §1"}, "BLK": {"target": "BLK (Homo sapiens, UniProt P51451)", "sequence (P51451 whole entry)": "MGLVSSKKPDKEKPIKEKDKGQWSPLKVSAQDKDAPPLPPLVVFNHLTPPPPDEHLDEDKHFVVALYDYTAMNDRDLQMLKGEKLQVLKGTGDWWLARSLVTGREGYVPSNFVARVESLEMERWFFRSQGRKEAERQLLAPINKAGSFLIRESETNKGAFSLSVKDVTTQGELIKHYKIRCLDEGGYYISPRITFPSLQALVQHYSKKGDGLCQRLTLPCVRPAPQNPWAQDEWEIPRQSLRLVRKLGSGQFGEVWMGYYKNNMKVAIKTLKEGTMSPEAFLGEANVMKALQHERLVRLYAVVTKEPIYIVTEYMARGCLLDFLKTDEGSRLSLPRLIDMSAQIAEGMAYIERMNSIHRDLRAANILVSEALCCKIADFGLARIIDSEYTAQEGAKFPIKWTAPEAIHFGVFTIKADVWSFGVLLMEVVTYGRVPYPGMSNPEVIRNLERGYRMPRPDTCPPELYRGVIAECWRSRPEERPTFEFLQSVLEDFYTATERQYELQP", "assay": "In vitro kinase assay (Kinase-Glo / ADP-Glo)", "type": "biochemical", "details": "TGI1002 1 µM; means of two independent experiments; read-out: Inhibitory effect (%)", "description": "as §1"}, "BRAF": {"target": "BRAF (Homo sapiens, UniProt P15056)", "sequence (P15056 whole entry)": "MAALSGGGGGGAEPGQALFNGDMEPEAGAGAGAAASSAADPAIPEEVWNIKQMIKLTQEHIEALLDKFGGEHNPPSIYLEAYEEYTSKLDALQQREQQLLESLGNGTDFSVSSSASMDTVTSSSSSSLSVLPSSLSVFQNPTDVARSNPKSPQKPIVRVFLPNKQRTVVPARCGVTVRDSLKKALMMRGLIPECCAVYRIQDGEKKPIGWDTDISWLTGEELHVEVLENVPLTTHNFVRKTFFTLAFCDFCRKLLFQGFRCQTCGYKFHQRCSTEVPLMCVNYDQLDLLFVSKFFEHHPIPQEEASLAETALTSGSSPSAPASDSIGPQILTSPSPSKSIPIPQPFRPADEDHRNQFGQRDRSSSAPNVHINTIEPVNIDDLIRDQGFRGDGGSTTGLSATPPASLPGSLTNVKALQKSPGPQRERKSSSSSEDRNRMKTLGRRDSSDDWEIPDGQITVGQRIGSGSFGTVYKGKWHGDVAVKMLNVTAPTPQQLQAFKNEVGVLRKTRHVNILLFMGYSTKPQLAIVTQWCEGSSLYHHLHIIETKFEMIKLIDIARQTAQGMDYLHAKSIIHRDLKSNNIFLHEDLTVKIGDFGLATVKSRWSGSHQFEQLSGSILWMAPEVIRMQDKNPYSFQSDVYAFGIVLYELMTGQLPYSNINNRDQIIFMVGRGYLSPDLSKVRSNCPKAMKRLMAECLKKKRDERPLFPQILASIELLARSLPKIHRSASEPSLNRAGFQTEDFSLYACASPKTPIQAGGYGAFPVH", "assay": "In vitro kinase assay (Kinase-Glo / ADP-Glo)", "type": "biochemical", "details": "TGI1002 1 µM; means of two independent experiments; read-out: Inhibitory effect (%)", "description": "as §1"}, "EphA1": {"target": "EphA1 (Homo sapiens, UniProt P21709)", "assay": "In vitro kinase assay (Kinase-Glo / ADP-Glo)", "type": "biochemical", "details": "TGI1002 1 µM; means of two independent experiments; read-out: Inhibitory effect (%)", "description": "as §1"}, "IGF1R": {"target": "IGF1R (Homo sapiens, UniProt P08069)", "sequence (P08069 31-1367)": "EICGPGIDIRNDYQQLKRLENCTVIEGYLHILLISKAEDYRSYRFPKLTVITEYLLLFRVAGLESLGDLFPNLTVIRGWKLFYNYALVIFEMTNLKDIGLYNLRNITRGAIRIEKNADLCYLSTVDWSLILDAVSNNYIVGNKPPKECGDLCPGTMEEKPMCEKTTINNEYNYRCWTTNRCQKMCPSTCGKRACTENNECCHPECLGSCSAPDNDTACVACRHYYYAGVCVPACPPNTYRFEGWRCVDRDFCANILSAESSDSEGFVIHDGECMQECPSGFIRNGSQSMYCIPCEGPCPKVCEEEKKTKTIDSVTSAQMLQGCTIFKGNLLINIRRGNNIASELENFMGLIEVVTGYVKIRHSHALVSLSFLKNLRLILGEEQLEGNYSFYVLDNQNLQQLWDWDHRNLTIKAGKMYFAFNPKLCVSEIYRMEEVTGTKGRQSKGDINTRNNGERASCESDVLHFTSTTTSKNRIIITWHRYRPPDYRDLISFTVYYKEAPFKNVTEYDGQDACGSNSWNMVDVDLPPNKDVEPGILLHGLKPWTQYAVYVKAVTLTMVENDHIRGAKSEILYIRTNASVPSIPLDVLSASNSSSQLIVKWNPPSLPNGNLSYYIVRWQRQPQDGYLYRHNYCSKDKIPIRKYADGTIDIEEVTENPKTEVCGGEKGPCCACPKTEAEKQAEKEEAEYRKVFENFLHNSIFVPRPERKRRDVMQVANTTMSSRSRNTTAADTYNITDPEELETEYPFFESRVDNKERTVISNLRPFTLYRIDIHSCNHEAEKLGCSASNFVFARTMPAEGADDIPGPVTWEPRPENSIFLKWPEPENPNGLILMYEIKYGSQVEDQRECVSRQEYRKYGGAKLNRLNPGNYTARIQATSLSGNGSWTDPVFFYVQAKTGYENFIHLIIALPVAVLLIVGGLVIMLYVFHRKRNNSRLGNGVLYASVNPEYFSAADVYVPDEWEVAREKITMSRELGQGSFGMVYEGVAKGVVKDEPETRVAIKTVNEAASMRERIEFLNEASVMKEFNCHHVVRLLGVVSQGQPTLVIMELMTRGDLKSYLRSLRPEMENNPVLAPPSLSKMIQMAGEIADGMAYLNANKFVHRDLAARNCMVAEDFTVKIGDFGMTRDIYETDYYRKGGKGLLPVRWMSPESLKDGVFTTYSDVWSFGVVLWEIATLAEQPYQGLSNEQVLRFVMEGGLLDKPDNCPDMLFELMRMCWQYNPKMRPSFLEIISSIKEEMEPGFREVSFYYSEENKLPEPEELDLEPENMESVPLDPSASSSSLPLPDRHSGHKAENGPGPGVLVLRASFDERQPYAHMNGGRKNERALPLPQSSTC", "assay": "In vitro kinase assay (Kinase-Glo / ADP-Glo)", "type": "biochemical", "details": "TGI1002 1 µM; means of two independent experiments; read-out: Inhibitory effect (%)", "description": "as §1"}, "PDGFRβ": {"target": "PDGFRβ (Homo sapiens, UniProt P09619)", "assay": "In vitro kinase assay (Kinase-Glo / ADP-Glo)", "type": "biochemical", "details": "TGI1002 1 µM; means of two independent experiments; read-out: Inhibitory effect (%)", "description": "as §1"}, "EGFR": {"target": "EGFR (Homo sapiens, UniProt P00533)", "assay": "In vitro kinase assay (Kinase-Glo / ADP-Glo)", "type": "biochemical", "details": "TGI1002 1 µM; means of two independent experiments; read-out: Inhibitory effect (%)", "description": "as §1"}, "PI3Kδ": {"target": "PI3Kδ (Homo sapiens, UniProt O00329)", "sequence (O00329 whole entry)": "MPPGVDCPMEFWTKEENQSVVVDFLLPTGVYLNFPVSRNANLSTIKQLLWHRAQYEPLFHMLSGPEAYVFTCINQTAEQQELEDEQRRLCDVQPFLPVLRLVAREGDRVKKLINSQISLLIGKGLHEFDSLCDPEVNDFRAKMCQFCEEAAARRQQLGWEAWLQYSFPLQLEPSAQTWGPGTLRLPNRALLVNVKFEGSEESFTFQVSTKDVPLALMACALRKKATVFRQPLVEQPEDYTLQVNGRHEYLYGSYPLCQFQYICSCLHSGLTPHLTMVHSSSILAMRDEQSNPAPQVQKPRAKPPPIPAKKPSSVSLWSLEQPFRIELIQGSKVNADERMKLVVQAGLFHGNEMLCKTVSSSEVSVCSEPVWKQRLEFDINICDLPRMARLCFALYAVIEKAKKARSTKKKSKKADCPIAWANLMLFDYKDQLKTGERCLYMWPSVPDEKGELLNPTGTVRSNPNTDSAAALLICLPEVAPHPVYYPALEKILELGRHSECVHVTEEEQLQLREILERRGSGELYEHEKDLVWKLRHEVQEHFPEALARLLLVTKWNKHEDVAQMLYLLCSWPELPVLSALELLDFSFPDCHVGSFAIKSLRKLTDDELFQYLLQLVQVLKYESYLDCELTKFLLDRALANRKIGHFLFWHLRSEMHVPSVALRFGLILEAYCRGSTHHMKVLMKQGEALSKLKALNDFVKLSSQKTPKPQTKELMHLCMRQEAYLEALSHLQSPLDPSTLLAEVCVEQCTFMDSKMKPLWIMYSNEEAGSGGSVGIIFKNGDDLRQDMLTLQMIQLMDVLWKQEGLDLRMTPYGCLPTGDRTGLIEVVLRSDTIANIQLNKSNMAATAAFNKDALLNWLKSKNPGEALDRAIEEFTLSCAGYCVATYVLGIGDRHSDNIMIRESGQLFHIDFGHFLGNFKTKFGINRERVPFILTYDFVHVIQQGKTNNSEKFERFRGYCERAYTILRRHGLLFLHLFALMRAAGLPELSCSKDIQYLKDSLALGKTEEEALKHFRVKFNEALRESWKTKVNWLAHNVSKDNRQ", "sequence (P27986 whole entry partner)": "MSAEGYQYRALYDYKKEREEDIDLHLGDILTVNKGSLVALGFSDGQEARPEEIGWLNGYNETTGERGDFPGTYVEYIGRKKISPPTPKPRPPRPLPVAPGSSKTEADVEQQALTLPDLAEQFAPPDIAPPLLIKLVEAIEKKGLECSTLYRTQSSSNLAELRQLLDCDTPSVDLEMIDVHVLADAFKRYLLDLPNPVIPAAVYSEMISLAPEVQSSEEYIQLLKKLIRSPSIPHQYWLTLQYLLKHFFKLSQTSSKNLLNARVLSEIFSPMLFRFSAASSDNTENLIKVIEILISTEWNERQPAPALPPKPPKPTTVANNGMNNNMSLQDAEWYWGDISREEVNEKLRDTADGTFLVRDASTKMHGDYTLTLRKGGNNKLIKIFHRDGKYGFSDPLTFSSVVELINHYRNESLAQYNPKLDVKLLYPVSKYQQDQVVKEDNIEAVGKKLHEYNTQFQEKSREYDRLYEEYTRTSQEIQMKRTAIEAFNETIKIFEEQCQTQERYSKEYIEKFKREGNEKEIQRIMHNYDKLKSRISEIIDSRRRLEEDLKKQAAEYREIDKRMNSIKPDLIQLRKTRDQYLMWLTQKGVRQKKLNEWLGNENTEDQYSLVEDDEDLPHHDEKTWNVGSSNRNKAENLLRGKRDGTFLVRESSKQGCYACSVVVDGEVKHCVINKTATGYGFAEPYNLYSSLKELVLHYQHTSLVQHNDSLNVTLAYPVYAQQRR", "assay": "In vitro kinase assay (Kinase-Glo / ADP-Glo)", "type": "biochemical", "details": "TGI1002 1 µM; means of two independent experiments; read-out: Inhibitory effect (%)", "description": "as §1"}, "RAF1": {"target": "RAF1 (Homo sapiens, UniProt P04049)", "assay": "In vitro kinase assay (Kinase-Glo / ADP-Glo)", "type": "biochemical", "details": "TGI1002 1 µM; means of two independent experiments; read-out: Inhibitory effect (%)", "description": "as §1"}, "[1]": {"test_system": "K562 cells expressing SET shRNA", "assay": "Cytotoxicity in K562 cells with stable SET knock-down (shRNA)", "type": "cell-based, human", "details": "SET knock-down vs control K562 cells", "description": "(§2) Twenty types of tumor cell lines were seeded at 4000 cells per well in 96-well plates. TGI1002 dissolved in phosphate saline was added to cells at final concentrations ranging from 0.5 nM to 100 μM for 120 h. Cell viability was measured with the CellTiter-Glo Luminescent Cell Viability Assay (Promega) according to the manufacturer's instructions. Luminescence was measured using an EnVision Multilabel Plate Reader (Perkin-Elmer). The cytotoxicity of TGI1002 was expressed as the percentage of luminescence relative to that of untreated cells.\nLentivirus-encoded shRNA against human SET (GenBank No.: NM_003011) and a noncoding gene (negative control) were prepared by Genechem and titered to 2 × 10^8 (TU/mL). K562 cells (1 × 10^4 cells/well) were seeded in 96-well plates overnight before transfection. The virus (10 μL) was mixed with 90 μL complete medium containing polybrene (5 μg/mL) and added to cells and incubated for 12 h at 37 °C. Then, the cells were incubated in fresh complete RPMI 1640 medium for 72 h, followed by incubation in complete medium containing puromycin (5 μg/mL). After 2 weeks of selection, individual clones were isolated, passaged and harvested for subsequent studies. Identification of stable SET-knockdown K562 cell line was performed by Western blotting. Effects of TGI1002 on cell viability of SET-knockdown K562 cells were studied as described above."}, "tubulin": {"test_system": "tubulin", "assay": "Microtubule assembly assay in K562 cells", "type": "cell-based, human", "details": "24 h", "description": "Separation of insoluble polymerized tubulin from soluble tubulin dimers and analysis of the effects of TGI1002 on tubulin polymerization were performed as described previously. In brief, K562 cells at a density of 1 × 10^6/100 mm^2 dishes were treated with indicated concentrations of TGI1002 at 24 h. Cells were washed with PBS for three times before adding polymerization lysate buffer containing 20 mM Tris-HCl (pH6.8), 1 mM MgCl2, 2 mM EGTA, […] aprotinin, […] leupeptin, 1 mM phenylmethylsulfonyl fluoride, 1 mM orthovanadate and 0.5% Nonidet. After centrifugation at 15,000 x g for 10 min at 4 °C, the pellets were resuspended in SDS-PAGE loading buffer and dissolved by heating at 95 °C for 10 min. Beta-tubulin was then Western blotted from both pellets (containing polymerized microtubules) and supernatants (containing depolymerized microtubules)."}, "BaF3-p210^T315I cells [2]": {"test_system": "BaF3-p210^T315I cells", "assay": "Cytotoxicity assay (CellTiter-Glo)", "type": "cell-based, murine", "details": "Mus musculus; TKI-resistant BaF3-p210^T315I cells, cell viability", "description": "as §2"}, "BaF3-p210^T315I cells [3]": {"test_system": "BaF3-p210^T315I cells", "assay": "Survival study, intravenously injected tumor cells", "type": "in vivo, BALB/c mice", "details": "30 mg/kg i.p. once daily from day 5; vehicle 25.5 days", "description": "In survival study, BaF3-p210^T315I cells were injected into the tail vein of BALB/c mice (100 μL of a 1 × 10^7 cells suspension in serum free medium). […] Moribund animals were sacrificed as per institutional and national guidelines. Survival data were analyzed by the Kaplan Meier method and compared using the log-rank test."}},
  "data": [
    {"compound": "Cc1ccc(NC(=O)c2cccc(CN3CCN(C)CC3)c2)cc1Oc1nccc(-c2cccnc2)n1.Cl", "note": "[TGI1002, N-(4-methyl-3-((4-(pyridin-3-yl)-pyrimidin-2-yl)oxy)phenyl)-3-((4-methylpiperazin-1-yl)methyl)benzamide hydrochloride]", "values": [
      {"measurement": "inhibition at 1 µM", "setting": "c-KIT", "value": 15.2, "unit": "%"},
      {"measurement": "inhibition at 1 µM", "setting": "ALK", "value": 4.27, "unit": "%"},
      {"measurement": "inhibition at 1 µM", "setting": "CDK2/CyclinA2", "value": 1.54, "unit": "%"},
      {"measurement": "inhibition at 1 µM", "setting": "PKAcβ", "value": 6.5, "unit": "%"},
      {"measurement": "inhibition at 1 µM", "setting": "ABL2", "value": 19.2, "unit": "%"},
      {"measurement": "inhibition at 1 µM", "setting": "PKAcα", "value": 5.96, "unit": "%"},
      {"measurement": "inhibition at 1 µM", "setting": "FLT1(VEGFR1)", "value": 1.97, "unit": "%"},
      {"measurement": "inhibition at 1 µM", "setting": "GSK3β", "value": 2.59, "unit": "%"},
      {"measurement": "inhibition at 1 µM", "setting": "HER2", "value": 7.88, "unit": "%"},
      {"measurement": "inhibition at 1 µM", "setting": "Aurora B", "value": 0, "unit": "%"},
      {"measurement": "inhibition at 1 µM", "setting": "TrkB", "value": 5.58, "unit": "%"},
      {"measurement": "inhibition at 1 µM", "setting": "AKT2", "value": 4.72, "unit": "%"},
      {"measurement": "inhibition at 1 µM", "setting": "ABL1", "value": 4.3, "unit": "%"},
      {"measurement": "inhibition at 1 µM", "setting": "BLK", "value": 3.39, "unit": "%"},
      {"measurement": "inhibition at 1 µM", "setting": "BRAF", "value": 2.3, "unit": "%"},
      {"measurement": "inhibition at 1 µM", "setting": "EphA1", "value": 1.58, "unit": "%"},
      {"measurement": "inhibition at 1 µM", "setting": "IGF1R", "value": 8.65, "unit": "%"},
      {"measurement": "inhibition at 1 µM", "setting": "PDGFRβ", "value": 17.2, "unit": "%"},
      {"measurement": "inhibition at 1 µM", "setting": "EGFR", "value": 0, "unit": "%"},
      {"measurement": "inhibition at 1 µM", "setting": "PI3Kδ", "value": 0.71, "unit": "%"},
      {"measurement": "inhibition at 1 µM", "setting": "RAF1", "value": 5.37, "unit": "%"},
      {"measurement": "sensitivity of K562 cells to treatment after SET-specific shRNA", "setting": "[1]", "value": "decreased the sensitivity"},
      {"measurement": "amounts of tubulin in depolymerized fraction S and polymerized fraction P", "setting": "tubulin", "value": "not affected"},
      {"measurement": "IC50", "setting": "BaF3-p210^T315I cells [2]", "value": "14.7 ± 2.61", "unit": "µM"},
      {"measurement": "median survival", "setting": "BaF3-p210^T315I cells [3]", "value": 32.5, "unit": "days"}
    ]}
  ]
}
